Values after ≈ are worked out from the molar mass of the structure shown. Structures can show the parent of a compound that is named as a salt.
Legend:
[1] = Solubility in simulated biological media (37° C., HPLC); assay type: physicochemical; conditions: for Solubility compared with the solubility of the free base: simulated biological media
Procedure: (§1) Procedure: About 10 mg of amorphous free base was weighed and placed in a 2 mL glass vial. Then, 1 mL of simulated biological media (simulated artificial gastric juice, simulated artificial intestinal juice-fasting, and simulated artificial intestinal juice-satiety), and a magnetic stirrer were added, and then the vial was sealed. The mixture was magnetically stirred at 37° C. and about 0.4 mL of the sample was taken at different time points. The mixture was filtered with a centrifuge tube (pore size of filter membrane: 0.45 μm), the filtrate was taken and the content of the compound of formula I therein was analyzed by HPLC.
as §1, with “crystal form I of” for “amorphous”, “vial,” for “vial. Then,”, “was” for “were”, “added,” for “added, and”
as §1, with “crystal form of the” for “amorphous”, “and” for “and then”
as §1, with “crystal form I of a phosphate salt” for “amorphous free base”, “(simulated is” for “(simulated”
as §1, with “crystal form III of the mesylate salt” for “amorphous free base”
as §1, with “crystal form III of the 1,5-naphthalenedisulfonate salt” for “amorphous free base”

[2] = Accelerated stability test (HPLC purity, crystal form); assay type: physicochemical; conditions: for Purity ratio: purity after test / initial purity
Procedure: The accelerated stability test of crystal form III of the mesylate salt was used for researching the physical and chemical stability of crystal form III of the mesylate salt. Specific procedure: After the sample was placed in an accelerated stability for a sufficient time under the conditions shown in the table below, the sample was taken out and dissolved in the mobile phase, and then its purity was determined by HPLC. Before the start of the accelerated stability test, the purity of the initial sample was determined by HPLC. The ratio of the purity of the sample after the accelerated stability test to the purity of the initial sample was used as a stability criterion. If the ratio was less than 95% purity, the sample was considered as unstable.

[3] = Bioavailability in dog after single administration by gavage; assay type: in vivo; conditions: 5 mg/kg
Procedure: It could be seen from FIG. 21 that the bioavailability of crystal form III of the mesylate salt was increased by 5 times in comparison to form I of the free base. Experimental conditions: the experimental animal was a dog, a dose of 5 mg/kg, single administration by gavage. Therefore, the salt-form compound has a significant improvement in comparison to the free base.

[4] = simulated artificial gastric juice
[5] = simulated artificial intestinal juice-fasting
[6] = simulated artificial intestinal juice-satiety
[7] = 40° C./75% relative humidity, 1 week

SMILES | Solubility (1 hour) [1, 4] [mg/mL] | Solubility (4 hours) [1, 4] [mg/mL] | Solubility (22 hours) [1, 4] [µg/mL] | Solubility (1 hour) [1, 5] [mg/mL] | Solubility (4 hours) [1, 5] [mg/mL] | Solubility (22 hours) [1, 5] [µg/mL] | Solubility (1 hour) [1, 6] [mg/mL] | Solubility (4 hours) [1, 6] [mg/mL] | Solubility (22 hours) [1, 6] [µg/mL] | Solubility compared with the solubility of the free base [1] | Crystal transformation after the accelerated stability test [2, 7] | Purity after the accelerated stability test ([2]; 40° C./75% relative humidity, 1 week, initial purity 98.2%) [%] | Purity ratio [2, 7] [%] | Physical and chemical stability ([2]; 80° C. 1 day and 40° C./75% relative humidity 1 week) | Crystal transformation after the accelerated stability test ([2]; 80° C., 1 day) | Purity after the accelerated stability test ([2]; 80° C., 1 day, initial purity 99.9%) [%] | Purity ratio ([2]; 80° C., 1 day) [%] | Increase of bioavailability in comparison to form I of the free base [3] [times]
CN1C(=O)COc2c1cnc1ccc(Sc3nnc4c(F)cc(-c5cnn(C)c5)cn34)cc21 [Amorphous free base, 9-((8-fluoro-6-(1-methyl-1H-pyrazol-4-yl)-[1,2,4]triazolo[4,3-a]pyridin-3-yl)thio)-4-methyl-2H-[1,4]oxazino[3,2-c]quinolin-3(4H)-one] | 0.011 (≈ 23.8 µM) | 0.009 (≈ 19.5 µM) | 9 (≈ 19.5 µM) | 0.002 (≈ 4.33 µM) | 0.002 (≈ 4.33 µM) | 2 (≈ 4.33 µM) | 0.003 (≈ 6.5 µM) | 0.002 (≈ 4.33 µM) | 2 (≈ 4.33 µM) | – | – | – | – | – | – | – | – | –
CN1C(=O)COc2c1cnc1ccc(Sc3nnc4c(F)cc(-c5cnn(C)c5)cn34)cc21 [Crystal form I of phosphate, 9-((8-fluoro-6-(1-methyl-1H-pyrazol-4-yl)-[1,2,4]triazolo[4,3-a]pyridin-3-yl)thio)-4-methyl-2H-[1,4]oxazino[3,2-c]quinolin-3(4H)-one] | 0.128 | 0.135 | 135 | 0.008 | 0.004 | 3 | 0.032 | 0.033 | 27 | much greater | – | – | – | – | – | – | – | –
CN1C(=O)COc2c1cnc1ccc(Sc3nnc4c(F)cc(-c5cnn(C)c5)cn34)cc21 [Crystal form I of free base, 9-((8-fluoro-6-(1-methyl-1H-pyrazol-4-yl)-[1,2,4]triazolo[4,3-a]pyridin-3-yl)thio)-4-methyl-2H-[1,4]oxazino[3,2-c]quinolin-3(4H)-one] | 0.018 (≈ 39 µM) | 0.019 (≈ 41.2 µM) | 19 (≈ 41.2 µM) | 0.001 (≈ 2.17 µM) | 0.001 (≈ 2.17 µM) | 2 (≈ 4.33 µM) | 0.004 (≈ 8.67 µM) | 0.004 (≈ 8.67 µM) | 4 (≈ 8.67 µM) | – | – | – | – | – | – | – | – | –
CN1C(=O)COc2c1cnc1ccc(Sc3nnc4c(F)cc(-c5cnn(C)c5)cn34)cc21 [Crystal form III of free base, 9-((8-fluoro-6-(1-methyl-1H-pyrazol-4-yl)-[1,2,4]triazolo[4,3-a]pyridin-3-yl)thio)-4-methyl-2H-[1,4]oxazino[3,2-c]quinolin-3(4H)-one] | 0.040 (≈ 86.7 µM) | 0.043 (≈ 93.2 µM) | 43 (≈ 93.2 µM) | 0.004 (≈ 8.67 µM) | 0.004 (≈ 8.67 µM) | 4 (≈ 8.67 µM) | 0.011 (≈ 23.8 µM) | 0.011 (≈ 23.8 µM) | 10 (≈ 21.7 µM) | – | – | – | – | – | – | – | – | –

Results, then the molecule that gave them:

Solubility (1 hour) [1, 4] [mg/mL] | Solubility (4 hours) [1, 4] [mg/mL] | Solubility (22 hours) [1, 4] [µg/mL] | Solubility (1 hour) [1, 5] [mg/mL] | Solubility (4 hours) [1, 5] [mg/mL] | Solubility (22 hours) [1, 5] [µg/mL] | Solubility (1 hour) [1, 6] [mg/mL] | Solubility (4 hours) [1, 6] [mg/mL] | Solubility (22 hours) [1, 6] [µg/mL] | Solubility compared with the solubility of the free base [1] | Crystal transformation after the accelerated stability test [2, 7] | Purity after the accelerated stability test ([2]; 40° C./75% relative humidity, 1 week, initial purity 98.2%) [%] | Purity ratio [2, 7] [%] | Physical and chemical stability ([2]; 80° C. 1 day and 40° C./75% relative humidity 1 week) | Crystal transformation after the accelerated stability test ([2]; 80° C., 1 day) | Purity after the accelerated stability test ([2]; 80° C., 1 day, initial purity 99.9%) [%] | Purity ratio ([2]; 80° C., 1 day) [%] | Increase of bioavailability in comparison to form I of the free base [3] [times] | SMILES
0.182 | 0.027 | 30 | 0.012 | 0.010 | 5 | 0.048 | 0.033 | 13 | much greater | – | – | – | – | – | – | – | – | CN1C(=O)COc2c1cnc1ccc(Sc3nnc4c(F)cc(-c5cnn(C)c5)cn34)cc21 [Crystal form III of the 1,5-naphthalenedisulfonate salt] [9-((8-fluoro-6-(1-methyl-1H-pyrazol-4-yl)-[1,2,4]triazolo[4,3-a]pyridin-3-yl)thio)-4-methyl-2H-[1,4]oxazino[3,2-c]quinolin-3(4H)-one]
0.211 | 0.200 | 12.5 | 0.005 | 0.005 | 5 | 0.020 | 0.014 | 10 | much greater | No | 98.8 | 100.6 | good physical and chemical stability | No | 99.7 | 99.8 | 5 | CN1C(=O)COc2c1cnc1ccc(Sc3nnc4c(F)cc(-c5cnn(C)c5)cn34)cc21 [Crystal form III of mesylate, 9-((8-fluoro-6-(1-methyl-1H-pyrazol-4-yl)-[1,2,4]triazolo[4,3-a]pyridin-3-yl)thio)-4-methyl-2H-[1,4]oxazino[3,2-c]quinolin-3(4H)-one]
